# From patent US10874640B2 (GILEAD SCIENCES, INC., priority 2016, dated 2020)
# System: not listed separately
# Assay: Hepatic Stability Assay
# Format: in vitro ADME
# Set-up: dose or concentration left out as unconfirmed
# Conditions: pooled cryopreserved hepatocytes; read-out: t½
# Procedure: The metabolic stability of certain compounds disclosed herein was assessed in vitro in pooled cryopreserved hepatocytes using the in vitro half-life method. Incubations were at 37° C. and final concentrations in the incubations were 1×10^6 cells/mL and […] test concentration of the compound. Aliquots were sequentially removed after 0, 1, 3 and 6 hours and analyzed by LC-MS/MS. In vitro half-life was determined by measuring the rate of disappearance of the compound and then scaled to predicted hepatic clearance using the well-stirred model. […] As such, compounds having a value of 39.5 may have a half live that exceeds 39.5 hours.
row,Structure (SMILES),half-life [min]
1,"CNC(=O)C1(NC(=O)C(=O)c2c(C)c(C(=O)Nc3cccc(C(F)F)c3)n3c2CCC3)CC(F)(F)C1 [Example 115, 7-(2-((3,3-difluoro-1-(methylcarbamoyl)cyclobutyl)amino)-2-oxoacetyl)-N-(3-(difluoromethyl)phenyl)-6-methyl-2,3-dihydro-1H-pyrrolizine-5-carboxamide]",≥ 2370
2,"Cc1c(C(=O)C(=O)NC2(C)CS(=O)(=O)C2)c2n(c1C(=O)Nc1ccc(F)c(C#N)c1)[C@@H]1C[C@@H]1C2 [Example 72, (1aR,6aR)—N-(3-cyano-4-fluorophenyl)-4-methyl-5-(2-((3-methyl-1,1-dioxidothietan-3-yl)amino)-2-oxoacetyl)-1,1a,6,6a-tetrahydrocyclopropa[b]pyrrolizine-3-carboxamide]",≥ 2370
3,Cc1c(C(=O)C(=O)N[C@](C)(C(N)=O)C(F)(F)F)c2n(c1C(=O)Nc1ccc(F)c(F)c1)CCC2 [Example 135],≥ 2370
4,Cc1c(C(=O)C(=O)N[C@@](C)(C(N)=O)C(F)(F)F)c2n(c1C(=O)Nc1ccc(F)c(F)c1)CCC2 [Example 136],≥ 2370
5,"CNC(=O)C1(NC(=O)C(=O)c2c(C)c(C(=O)Nc3ccc(F)c(F)c3)n3c2C[C@@H](F)C3)CC(F)(F)C1 [Example 49, (R)-7-(2-((3,3-difluoro-1-(methylcarbamoyl)cyclobutyl)amino)-2-oxoacetyl)-N-(3,4-difluorophenyl)-2-fluoro-6-methyl-2,3-dihydro-1H-pyrrolizine-5-carboxamide]",≥ 2370
6,"CNC(=O)C1(NC(=O)C(=O)c2c(C)c(C(=O)Nc3ccc(F)c(C(F)F)c3)n3c2CCC3)CC(F)(F)C1 [Example 116, 7-(2-((3,3-difluoro-1-(methylcarbamoyl)cyclobutyl)amino)-2-oxoacetyl)-N-(3-(difluoromethyl)-4-fluorophenyl)-6-methyl-2,3-dihydro-1H-pyrrolizine-5-carboxamide]",≥ 2370
7,"Cc1c(C(=O)C(=O)NC2(c3c[nH]nn3)CC2)c2n(c1C(=O)Nc1ccc(F)cc1)CCC2 [Example 70, 7-(2-((1-(1H-1,2,3-triazol-4-yl)cyclopropyl)amino)-2-oxoacetyl)-N-(4-fluorophenyl)-6-methyl-2,3-dihydro-1H-pyrrolizine-5-carboxamide]",≥ 2370
8,"CNC(=O)C1(NC(=O)C(=O)c2c(C)c(C(=O)Nc3ccc(F)cc3)n3c2CCC3)CC(F)(F)C1 [Example 47, 7-(2-((3,3-difluoro-1-(methylcarbamoyl)cyclobutyl)amino)-2-oxoacetyl)-N-(4-fluorophenyl)-6-methyl-2,3-dihydro-1H-pyrrolizine-5-carboxamide]",≥ 2370
9,"Cc1c(C(=O)C(=O)NC2(c3c[nH]nn3)CC2)c2n(c1C(=O)Nc1ccnc(C(F)F)c1)[C@@H]1C[C@@H]1C2 [Example 56, (1aR,6aR)-5-(2-((1-(1H-1,2,3-triazol-4-yl)cyclopropyl)amino)-2-oxoacetyl)-N-(2-(difluoromethyl)pyridin-4-yl)-4-methyl-1,1a,6,6a-tetrahydrocyclopropa[b]pyrrolizine-3-carboxamide]",≥ 2370
10,"CNC(=O)C1(NC(=O)C(=O)c2c(C)c(C(=O)Nc3ccc(F)c(F)c3)n3c2CCC3)CC(F)(F)C1 [Example 44, 7-(2-((3,3-difluoro-1-(methylcarbamoyl)cyclobutyl)amino)-2-oxoacetyl)-N-(3,4-difluorophenyl)-6-methyl-2,3-dihydro-1H-pyrrolizine-5-carboxamide]",≥ 2370
11,"CNC(=O)C1(NC(=O)C(=O)c2c(C)c(C(=O)Nc3ccc(F)c(C#N)c3)n3c2CCC3)CC(F)(F)C1 [Example 35, N-(3-cyano-4-fluorophenyl)-7-(2-((3,3-difluoro-1-(methylcarbamoyl)cyclobutyl)amino)-2-oxoacetyl)-6-methyl-2,3-dihydro-1H-pyrrolizine-5-carboxamide]",≥ 2370

# System: HBV AD38 viral particles in HepG2 cell line overexpressing NTCP
# Assay: HBV DNA Quantification Assay
# Format: cell-based
# Conditions: Hepatitis B virus, HepG2, 120 h, HBV AD38-infected HepG2-NTCP cells, 5 days incubation, HBV DNA in culture supernatant (QuantiGene 2.0); geometric mean of a minimum of four determinations
# Procedure: A HepG2 cell line overexpressing the HBV virus attachment receptor sodium-taurocholate cotransporting polypeptide (NTCP) was grown to confluency in DMEM growth medium, Dulbecco's Modified Eagle Medium without sodium pyruvate (Life Technologies, Rockville, Md.) supplemented with 10% FBS (Thermo Scientific, Waltham, Md.), 1% penicillin/streptomycin (Life Technologies, Rockville, Md.) and 2 mM L-glutamine (Life Technologies, Rockville, Md.) in T175 flasks. Cells were infected with HBV AD38 viral particles (Texcell, Frederick, USA) at 4000 genome equivalents per cell. […] The assay plates were incubated for a period of 5 days and the antiviral activity of the test compounds were assayed by detecting the presence of HBV DNA in the culture supernatant using the QuantiGene™ 2.0 nucleic acid quantification kit (Affymetrix, Santa Clara, Calif.).
# The culture supernatant was harvested and treated with lysis buffer containing Proteinase K (Affymetrix, Santa Clara, Calif.). […] After the final wash step, the alkaline phosphatase substrate (Luminol APS5) was added and the resulting luminescence signal was read in an EnVision Multilabel Plate Reader (PerkinElmer, Santa Clara, Calif.). […]
row,Structure (SMILES),EC50 [nM]
1,"Cc1c(C(=O)C(=O)NC2(c3c[nH]nn3)CC(F)(F)C2)c2n(c1C(=O)Nc1ccnc(C(F)F)c1F)[C@@H]1C[C@@H]1C2 [Example 80, (1aR,6aR)-5-(2-((3,3-difluoro-1-(1H-1,2,3-triazol-4-yl)cyclobutyl)amino)-2-oxoacetyl)-N-(2-(difluoromethyl)-3-fluoropyridin-4-yl)-4-methyl-1,1a,6,6a-tetrahydrocyclopropa[b]pyrrolizine-3-carboxamide]",8.7
